Paper PMC7059793, “Novel Chemical Scaffolds to Inhibit the Neutral Amino Acid Transporter B^0AT1 (SLC6A19), a Potential Target to Treat Metabolic Diseases” (Frontiers in Pharmacology, 2020)

How the values were obtained:
[1] = target: T1, B^0AT1 (Homo sapiens, UniProt Q695T7); assay: Radioactive flux assay (radiolabelled leucine/isoleucine uptake) in CHO-BC cells; format: cell-based; details: 150 μM [14C]leucine or [14C]isoleucine, 6 min, 37°C
T1 construct: expressed in transfected cells
T1 sequence (Q695T7 1-634): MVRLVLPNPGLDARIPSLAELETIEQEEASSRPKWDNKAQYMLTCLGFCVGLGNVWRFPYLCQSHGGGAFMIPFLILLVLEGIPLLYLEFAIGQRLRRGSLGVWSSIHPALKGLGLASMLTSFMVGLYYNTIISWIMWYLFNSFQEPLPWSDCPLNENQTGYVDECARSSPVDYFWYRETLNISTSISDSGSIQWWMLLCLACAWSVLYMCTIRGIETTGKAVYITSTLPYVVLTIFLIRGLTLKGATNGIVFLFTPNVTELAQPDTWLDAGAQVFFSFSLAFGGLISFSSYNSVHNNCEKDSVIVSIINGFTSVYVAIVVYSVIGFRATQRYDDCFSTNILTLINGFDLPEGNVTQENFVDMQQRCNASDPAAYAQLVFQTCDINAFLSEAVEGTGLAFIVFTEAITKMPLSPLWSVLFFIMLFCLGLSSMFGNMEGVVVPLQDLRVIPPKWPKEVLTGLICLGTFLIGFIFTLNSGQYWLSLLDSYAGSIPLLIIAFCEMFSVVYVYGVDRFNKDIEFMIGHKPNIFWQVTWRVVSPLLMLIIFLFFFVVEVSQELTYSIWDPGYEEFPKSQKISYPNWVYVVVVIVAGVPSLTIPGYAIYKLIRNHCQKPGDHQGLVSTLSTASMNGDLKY
T1 sequence (Q9HBJ8 15-222 partner): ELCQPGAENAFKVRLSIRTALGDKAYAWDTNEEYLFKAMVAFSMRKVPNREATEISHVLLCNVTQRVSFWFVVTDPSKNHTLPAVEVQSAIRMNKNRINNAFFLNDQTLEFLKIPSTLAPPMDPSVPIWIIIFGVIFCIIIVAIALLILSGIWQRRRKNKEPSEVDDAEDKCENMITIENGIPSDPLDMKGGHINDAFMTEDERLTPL
Description: CHO-BC cells with passage numbers from 3 to 10 were used in radio-labelled uptake assays. Before the assay, the cells were seeded out in 35 mm dishes (Corning) and maintained for 48–72 h until reaching 80–90% confluence. To initiate transport, the culture medium was removed and the cells washed three times with HBSS + G. Subsequently, cells were incubated with HBSS + G, radiolabelled substrates (150 μM L-[U-^14C]leucine or 150 μM L-[U-^14C]isoleucine) and inhibitors as indicated in the figures or table in a 37°C water bath for 6 min. To terminate transport, cells were washed three times with ice-cold HBSS pH 7.5. For measuring sodium-independent uptake, NaCl in Hank’s buffer was replaced by NMDG-Cl. Cells were then harvested by homogenizing with 500 µl of 0.1 M HCl. An aliquot of 400 µl was used for scintillation counting and the remainder for protein quantification. To investigate inhibition of ASCT2, uptake of 100 μM [^14C]glutamine was measured in 143B cells in the absence and presence of inhibitor (at 10 μM and 50 μM). To measure inhibition of LAT1, uptake of [^14C]leucine was measured in HBSS + G in which NaCl was replaced by NMDG-Cl in 143B cells in the absence and presence of inhibitor (at 10 μM and 50 μM).
Data are shown as mean ± S.D., transport activities indicated as Na^+-dependent net uptake, were calculated by subtracting the uptake activity in the absence of Na^+ from the total uptake rate. The fluorescent signals measured in the FLIPR assay were normalized to baseline readings before the addition of substrates. Data are presented as percentage of baseline at each time point. IC50 was calculated using the equation: y=ymax(1−[x]/[x]+IC50) .

[2] = target: T1, B^0AT1; assay: Mode of inhibition: leucine uptake kinetics at three inhibitor concentrations, FLIPR, Eadie-Hofstee; format: cell-based; details: CHO-BC cells
Text: To understand the mode of inhibition, we determined KM-values at three different inhibitor concentrations using FLIPR assay and plotted Eadie-Hofstee transformed data ( Figure 5 ). Fully parallel lines indicate a change of […], while fully converging lines (at x = 0; y = Vmax) indicate a change of KM only with increasing concentrations of the inhibitor. […] To rationalize the mode of inhibition, we performed docking studies using a homology model of B^0AT1 based on the outside-open conformation of LeuT. […] In the homology structure the two Na^+ are shown as yellow spheres. Both, LeuT Na^+-site 1 and -site 2 are conserved in B^0AT1, but only one site is used functionally. This is most likely site 1 as it binds the α-carboxyl-group of the amino acids ([O’mara et al., 2006]). […] Many transport inhibitors are substrate analogues that are too large to fit into the occluded substrate binding cavity, thereby blocking the conformational change required for transport ([Broer, 2018]). […] Instead the compounds preferred binding to different sites in the vestibule, including the proposed Substrate-binding site 2 ([Shi et al., 2008]), which was the preferred docking site for compound E4. In the outside open conformation, the volume of the binding site increases, encompassing an orthostatic binding site ( Figure 5H , orange), occupied by E4, E18, or the substrate and an allosteric binding site ( Figure 5H , blue), which is compatible with substrate binding.
Figure 5 Mechanistic aspects of B^0AT1 inhibitors. Inhibition of B^0AT1 by compounds E4 (A), E18 (B) and CB3 (C) (n = 3, e = 3) was determined by FLIPR assay in CHO-BC cells. To determine the mode of inhibition, the kinetic properties of leucine uptake were determined in the presence of three different inhibitor concentrations. Docking poses of compounds E4 (D), E18 (E) and CB3 (F) are shown for comparison. Amino acid side-chains of the binding pocket are shown in green, cosubstrate Na^+ 1 is shown in yellow (foreground), Na^+ 2 is only partially visible in the background and may not exist in B^0AT1. […]

Row | IC50 [1] | Mode of inhibition [2] | Compound
1 | 4.9 ± 0.4 µM | more mixed model | Cc1cc(C(=O)Nc2ccc(Cl)cc2C(F)(F)F)no1 [CB3]
2 | 7.7 ± 1.9 µM | largely competitive mode of inhibition | Cc1cc(OCC(=O)NC(C)C)cc(C)c1Cl [Compound E4]
3 | 3.4 ± 0.3 µM | largely competitive mode of inhibition | COc1ccccc1Nc1nc2ccccc2s1 [Compound E18]
